In patent US20240124444A1 (Celgene Corporation, priority 2020, published 2024):
Like-named read-outs stand apart in the source and are kept apart here.

Tested on: C. parvum strain UGA1
Assay: C. parvum growth inhibition assay (Nluc luminescence in HCT-8 cells)
Type: cell-based, Cryptosporidium parvum
Conditions: for EC50 / inhibition at 1 µM / inhibition at 10 µM: Cryptosporidium parvum; for EC50: HCT-8, 48 h, C. parvum growth inhibition in HCT-8 cells, 48 hours, 6 concentrations 10-0.04 μM; for inhibition at 1 µM / inhibition at 10 µM: HCT-8; for inhibition at 1 µM: read-out: % inh @ 1 uM C. parvum; for inhibition at 10 µM: read-out: % inh @ 10 uM C. parvum
[1] = single point inhibition @ 10 uM
[2] = single point inhibition at 1 uM
[3] = single point inhibition at 10 uM

Row | SMILES | EC50 | inhibition at 1 µM [2] | inhibition at 10 µM [3] | further results
1 | Cc1cc(-c2cc3cnc(N[C@H]4CCCOC4)cc3[nH]2)ccn1 [Example 22, (S)-2-(2-Methylpyridin-4-yl)-N-(tetrahydro-2H-pyran-3-yl)-1H-pyrrolo[3,2-c]pyridin-6-amine] | > 1 µM | – | – | inhibition at 1 µM (single point inhibition @ 1 uM): 33 to 66%; inhibition at 10 µM [1]: 67 to 100%
2 | CCOc1nccc(-c2cc3cnc(NC(=O)c4cnn(C)c4)cc3n2CC(C)C)n1 [Example 316, N-(2-(2-ethoxypyrimidin-4-yl)-1-isobutyl-1H-pyrrolo[3,2-c]pyridin-6-yl)-1-methyl-1H-pyrazole-4-carboxamide] | – | 0 to 33% | 0 to 33% | –
3 | FC(F)(F)CNc1nccc(-c2cc3cnc(NC4CCC4)cc3[nH]2)n1 [Example 373, N-cyclobutyl-2-(2-(2,2,2-trifluoroethylamino)pyrimidin-4-yl)-1H-pyrrolo[3,2-c]pyridin-6-amine] | 0.5 to 1 µM | – | – | –
4 | Cn1cc(C(=O)Nc2cc3[nH]c(-c4ccnc(O[C@H]5CC[C@@H](O)CC5)n4)cc3cn2)cn1 [Example 325, N-(2-(2-((1s,4s)-4-hydroxycyclohexyloxy)pyrimidin-4-yl)-1H-pyrrolo[3,2-c]pyridin-6-yl)-1-methyl-1H-pyrazole-4-carboxamide] | – | – | – | % inh @ 1 uM C. parvum [2]: D (single point inhibition values of 0-33% (activity level D)); % inh @ 10 uM C. parvum [3]: D (single point inhibition values of 0-33% (activity level D))
5 | Cc1cc(-c2cc3cnc(NC4CCOCC4)cc3[nH]2)nc(C)n1 [Example 393, 2-(2,6-dimethylpyrimidin-4-yl)-N-(tetrahydro-2H-pyran-4-yl)-1H-pyrrolo[3,2-c]pyridin-6-amine] | > 1 µM | – | – | –
6 | CC(C)Nc1cc2c(cn1)cc(-c1ccnc(NCC(F)(F)F)n1)n2C [Example 383, N-isopropyl-1-methyl-2-(2-(2,2,2-trifluoroethylamino)pyrimidin-4-yl)-1H-pyrrolo[3,2-c]pyridin-6-amine] | > 1 µM | – | – | –
7 | O=C(Nc1cc2[nH]c(-c3ccnc(OCC(F)F)n3)cc2cn1)c1cnn([C@H]2CC[C@@H](O)CC2)c1 [Example 323, N-(2-(2-(2,2-difluoroethoxy)pyrimidin-4-yl)-1H-pyrrolo[3,2-c]pyridin-6-yl)-1-((1s,4s)-4-hydroxycyclohexyl)-1H-pyrazole-4-carboxamide] | – | 0 to 33% | 0 to 33% | –
8 | Cc1nn(C)cc1C(=O)Nc1cc2[nH]c(-c3ccnc(OCC(F)(F)F)n3)cc2cn1 [Example 226, 1,3-dimethyl-N-(2-(2-(2,2,2-trifluoroethoxy)pyrimidin-4-yl)-1H-pyrrolo[3,2-c]pyridin-6-yl)-1H-pyrazole-4-carboxamide] | – | 0 to 33% | 33 to 66% | –
9 | Cn1c(-c2cc(C(F)(F)F)ncn2)cc2cnc(NC3CCOCC3)cc21 [Example 392, 1-methyl-N-(tetrahydro-2H-pyran-4-yl)-2-(6-(trifluoromethyl)pyrimidin-4-yl)-1H-pyrrolo[3,2-c]pyridin-6-amine] | > 1 µM | – | – | –
10 | COc1cccc(Nc2cc3[nH]c(-c4cnn(C)c4)cc3cn2)c1 [Example 197, N-(3-methoxyphenyl)-2-(1-methyl-1H-pyrazol-4-yl)-1H-pyrrolo[3,2-c]pyridin-6-amine] | – | – | – | inhibition at 1 µM (single point inhibition @ 1 uM): 0 to 33%; inhibition at 10 µM [1]: 67 to 100%
11 | O=S(=O)(Nc1cc2[nH]c(C(F)(F)F)cc2cn1)C1CC1 [Example 106, N-(2-(trifluoromethyl)-1H-pyrrolo[3,2-c]pyridin-6-yl)cyclopropanesulfonamide] | > 1 µM | – | – | –
12 | FC(F)(F)CCc1nccc(-c2cc3cnc(NC4CCOCC4)cc3[nH]2)n1 [Example 385, N-(tetrahydro-2H-pyran-4-yl)-2-(2-(3,3,3-trifluoropropyl)pyrimidin-4-yl)-1H-pyrrolo[3,2-c]pyridin-6-amine] | > 1 µM | – | – | –
13 | Cn1cc(C(=O)Nc2cc3[nH]c(-c4nc[nH]n4)cc3cn2)cn1 [Example 264, N-(2-(1H-1,2,4-triazol-3-yl)-1H-pyrrolo[3,2-c]pyridin-6-yl)-1-methyl-1H-pyrazole-4-carboxamide] | – | 0 to 33% | 0 to 33% | –
14 | COc1nccc(-c2cc3cnc(NC(=O)CC4COC4)cc3[nH]2)n1 [Example 227, N-(2-(2-methoxypyrimidin-4-yl)-1H-pyrrolo[3,2-c]pyridin-6-yl)-2-(oxetan-3-yl)acetamide] | – | 0 to 33% | 33 to 66% | –
15 | CCOc1nccc(-c2cc3cnc(NC(=O)c4cn(CC5CCCO5)nc4C)cc3[nH]2)n1 (stereo in doubt) [Example 322, (S)-N-(2-(2-ethoxypyrimidin-4-yl)-1H-pyrrolo[3,2-c]pyridin-6-yl)-3-methyl-1-((tetrahydrofuran-2-yl)methyl)-1H-pyrazole-4-carboxamide] | – | 0 to 33% | 0 to 33% | –
16 | CC(C)n1cc(C(=O)Nc2cc3[nH]c(-c4ccnc(OC(C)C(F)(F)F)n4)cc3cn2)cn1 (centres unmarked) [Example 149, 1-isopropyl-N-(2-(2-(1,1,1-trifluoropropan-2-yloxy)pyrimidin-4-yl)-1H-pyrrolo[3,2-c]pyridin-6-yl)-1H-pyrazole-4-carboxamide] | – | – | – | inhibition at 1 µM (single point inhibition @ 1 uM): 0 to 33%; inhibition at 10 µM [1]: 67 to 100%
17 | Cc1cc(-c2[nH]c3cc(NC4CCOCC4)ncc3c2C)ccn1 [Example 362, 3-methyl-2-(2-methylpyridin-4-yl)-N-(tetrahydro-2H-pyran-4-yl)-1H-pyrrolo[3,2-c]pyridin-6-amine] | > 1 µM | – | – | –
18 | Cc1cc(-c2cc3cnc(NC(=O)OC4CCOC4)cc3[nH]2)ccn1 (stereo in doubt) [Example 152, (R)-tetrahydrofuran-3-yl 2-(2-methylpyridin-4-yl)-1H-pyrrolo[3,2-c]pyridin-6-ylcarbamate] | – | – | – | inhibition at 1 µM (single point inhibition @ 1 uM): 0 to 33%; inhibition at 10 µM [1]: 67 to 100%
19 | c1ccc(-c2cc3cnc(NC4CCOCC4)cc3[nH]2)nc1 [Example 349, 2-(pyridin-2-yl)-N-(tetrahydro-2H-pyran-4-yl)-1H-pyrrolo[3,2-c]pyridin-6-amine] | > 1 µM | – | – | –
20 | FC(F)(F)c1cc2cnc(NC3CCOCC3)cc2[nH]1 [Example 71, N-(tetrahydro-2H-pyran-4-yl)-2-(trifluoromethyl)-1H-pyrrolo[3,2-c]pyridin-6-amine] | > 1 µM | – | – | –
21 | Cn1cc(C(=O)Nc2cc3[nH]c(CCCO)cc3cn2)cn1 [Example 89, N-(2-(3-hydroxypropyl)-1H-pyrrolo[3,2-c]pyridin-6-yl)-1-methyl-1H-pyrazole-4-carboxamide] | > 1 µM | – | – | inhibition at 1 µM (single point inhibition @ 1 uM): 0 to 33%; inhibition at 10 µM [1]: 0 to 33%
22 | O=C(Nc1cc2[nH]c(-c3cnc(C(F)(F)F)s3)cc2cn1)C1CC1 [Example 103, N-(2-(2-(trifluoromethyl)thiazol-5-yl)-1H-pyrrolo[3,2-c]pyridin-6-yl)cyclopropanecarboxamide] | > 1 µM | – | – | –
23 | Cc1cc(-c2cc3cnc(NC(=O)C(C)(C)C)cc3[nH]2)ccn1 [Example 301, N-(2-(2-methylpyridin-4-yl)-1H-pyrrolo[3,2-c]pyridin-6-yl)pivalamide] | – | 0 to 33% | 0 to 33% | –
24 | Cn1cc(C(=O)Nc2cc3[nH]c(-c4cccnc4)cc3cn2)cn1 [Example 332, 1-methyl-N-(2-(pyridin-3-yl)-1H-pyrrolo[3,2-c]pyridin-6-yl)-1H-pyrazole-4-carboxamide] | – | 0 to 33% | 0 to 33% | –
25 | CC(C)c1nccc(-c2cc3cnc(NC4CCOCC4)cc3n2C)n1 [Example 391, 2-(2-isopropylpyrimidin-4-yl)-1-methyl-N-(tetrahydro-2H-pyran-4-yl)-1H-pyrrolo[3,2-c]pyridin-6-amine] | > 1 µM | – | – | –
